This note sets out measurements from patent US20170184612A1, “USE OF LEUKOCYTES AND NOVEL BIOMARKERS IN THE DIAGNOSIS, CONFIRMATION, AND TREATMENT OF A NEUROLOGICAL DISORDER” (The Trustees of Columbia University in the City of New York, priority 2014, published 2017).

Assay type in all cases: cell-based, mouse
In experiment [1] the test system is VM DA (TH+) neurons. Kind of experiment: Antigen processing and presentation, […]-MHC-I immunolabel. To be noted: IFN-γ with extracellular SIINFEKL, positive control. Here is the method:
Following exposure of SN neuronal cultures to OVA or vehicle for 7 days, neurons were exposed to IFN-γ or saline for 72 h (note that these cultures were never exposed to […] (SEQ ID NO: 9)). The cultures were then double immunolabeled for TH and an antibody that recognizes only the MHC-I complex when is occupied by […] (SEQ ID NO: 9) ([…]-MHC-I). Occasional label of astrocytes, but not neurons, for […]-MHC-I was observed when the cultures were exposed to the vehicle, IFN-γ, or OVA alone (FIG. 5A). […] The results herein indicate that OVA had been processed to […] (SEQ ID NO: 9) within these mixed neuron/astrocyte cultures and loaded into the MHC-I groove within neuronal cytosol, and that the resulting complex was presented on the neuronal plasma membrane.
IFN-γ (R&D Systems) was used at a range of non-toxic concentrations for neurons or OT-1 cells (10 μg/ml-100 ng/ml, 72h). […]
Images were captured using a Leica SP5 microscope system. There was no fluorescence bleed-through of secondary antibodies under the conditions used. […]
In order to assess the proportion of TH^+ and MAP-2^+ neurons that expressed MHC-I^+, first TH^+ and MAP-2^+ neurons were counted in 24 fields surrounding the border of the well at 20× magnification. The number of TH^+ or MAP-2^+ neurons with intact soma and two or more neurites equal to or greater than the diameter of the cell soma was counted. […]

The next experiment concerns OT-1 CTL cells. The experiment can be described thus: OT-1 CD8+ cell proliferation by BrdU incorporation. To be noted: combination with IFN-γ; DC and VM neuronal cultures. The source says:
The capacity of CTLs to respond to MHC-I induced SN neurons was examined first, by following CTL proliferation using 5-bromo-2-deoxyuridine (BrdU) incorporation.
Primary DCs were obtained from mouse […] femur hematopoietic stem cells. In brief, mouse femur hematopoietic stem cells from bone marrow were harvested from the hind legs of 8 to 12-week old male wild-type C57BL/6J and plated at 2×10^6 cells/ml density in DC culture medium (DMEM supplemented with 10% FBS, lx non-essential amino acids, 2 mM L-glutamine, 1 mM sodium pyruvate and 20 mM HEPES). For differentiation to dendritic cells, 10 ng/ml of recombinant mouse GM-CSF was added to media. Cells were fed every 2 days with fresh DMEM containing GM-CSF, and the cultures were trypsinized after 8 days and plated at 4×10^5 cells/cm^2 density to be used for experiments the following day (Tallóczy et al., 2008). OT-1 CD8^+ and OT-2 CD4^+ T cell lines, a kind gift from Dr. Raphael Clynes (Department of Medicine and Microbiology, Columbia University Medical Center), express a transgene encoding T cell receptor that specifically recognizes […] (SEQ ID NO: 9) peptide (derived from OVA) bound to MHC-I H-2Kb or to MHC-II I-A/I-E (Hogquist et al., 1994). Activated primary OT-1 and OT-2 T cells were generated by the addition of […] […]
OT-1 CD8^+ cell proliferation was assessed by BrdU incorporation. […]

The test system of experiment [2] is VM DA (TH+) neurons. Kind of experiment: OT-1 T cell cytotoxicity (killing) assay on VM DA neurons. Particulars: combination of CTLs, IFN-γ and SIINFEKL
The method, then: OT-1 CD8^+ cell proliferation was assessed by BrdU incorporation. For OT-1 T cell cytotoxicity assays, DC and VM (from C57BL/6 and 56.129P2-B2mtm1Unc/J mice) cell cultures were incubated with neuronal medium or neuronal medium containing 100 ng/ml of IFN-γ (R&D Systems). Neurons were loaded with or without […] (SEQ ID NO: 9) peptide (1 μM), and, subsequently in vitro activated OT-1 cells were added at a density of 100,000 cells/well and co-incubated for 24 h.
We used the same conditions for VM cell cultures with microglial medium previously stimulated with LPS, NM or α-syn instead of IFN-γ. Neurons were pre-incubated with IFN-γ and […] (SEQ ID NO: 9) peptide as above, and then with: 1) a pan-caspase general inhibitor (Z-VAD-FMK, 20 μM, 24h, IMGENEX); 2) a specific granzyme/perforin inhibitor (concanamycin A, 100 nM, 24h, Sigma Aldrich); 3) a specific Fas/FasL antagonist (Kp7-6, 1 mM, 24h, EMD Biosciences) and 4) concanamycin A and Kp7-6 together. OT-1 cells were then added to the culture (100,000 cells/well) and maintained for 24 h.
Following immunocytochemical staining of VM neurons, we assessed the proportion of surviving DA (TH^+) and non-DA cells (MAP-2^+, TH^−). Total numbers of TH^+ and MAP-2^+ neurons were counted in 24 fields surrounding the border of the well at 20× magnification. The number of surviving TH+ neurons with an intact soma and two or more neurites equal to or greater than the diameter of the cell soma was counted and normalized to the number in untreated cultures.

In the case of “SIINFEKL [8 amino acid peptide derived from OVA]”, the “TH+ neurons with SIINFEKL-MHC-I immunolabel” value in the experiment on VM DA (TH+) neurons [1] is recorded as approximately 70%. Moreover, the CTL proliferation result in the experiment with OT-1 CTL cells is “induced similar CTL proliferation by both DC and VM neuronal cultures”. Also, the neuronal death result with VM DA (TH+) neurons [2] (MHC-I null (KO) SN neurons) was “no neuronal death was triggered”. In addition, the “TH+ neurons killed” value in the experiment on VM DA (TH+) neurons [2] (wild type neurons) is 55%.
